Data: patent US7776890B2, “1H-indazole compounds” (Eisai R&D Management Co., Ltd., priority 2005, dated 2010)

molecular target: T1, Human JNK 3 (Homo sapiens, UniProt P53779); experiment: Determination of JNK 3 Inhibition; type: biochemical; conditions: 50% inhibitory concentration on the enzymatic activity of JNK; GST-JNK 3, substrate GST-c-Jun, 3.33 μM of ATP, 30 minutes
T1 construct: made in house; host or cells: Escherichia coli
Protocol: Human JNK 3 was expressed as a fusion protein (GST-JNK 3) with glutathione S-transferase (GST) in Escherichia coli and was purified using glutathione Sepharose 4B beads. The amino acid sequence 1-169 of c-Jun was […] as a fusion protein (GST-c-Jun) with GST in Escherichia coli, was purified using glutathione Sepharose 4B beads and was used as a substrate. A test compound was diluted with 100% dimethyl sulfoxide into 10 mM and was then further diluted with 10% aqueous dimethyl sulfoxide solution to yield a dilution series. To each well of 96-well OPTI plate (available from Packard) were placed 20 μl of the diluted compound, 30 μl of a substrate solution (1.2 μg of GST-c-Jun, […], 0.2 μCi of [γ-^33P]ATP, 25 mM of HEPES pH=7.5, 10 mM of magnesium acetate, and 3.33 μM of ATP), and 50 μl of an enzyme solution (0.04 μg of GST-JNK 3, 25 mM of HEPES pH=7.5, and 10 mM magnesium acetate) up to 100 μl, and the mixture was allowed to react for 30 minutes. After terminating the reaction by adding 100 μl of a reaction terminator (80 mM ATP, 50 mg/ml glutathione SPA beads (available from Amersham Pharmacia Biotech)), the reaction mixture was shaken for 30 minutes. The mixture was centrifuged at room temperature at 1000×g for 5 minutes, and the emission intensity thereof was determined on a TopCount™ illuminator (available from Packard). The activity is expressed by the 50% inhibitory concentration on the enzymatic activity of JNK, i.e., IC50 (nM).

T1 sequence (P53779 whole entry): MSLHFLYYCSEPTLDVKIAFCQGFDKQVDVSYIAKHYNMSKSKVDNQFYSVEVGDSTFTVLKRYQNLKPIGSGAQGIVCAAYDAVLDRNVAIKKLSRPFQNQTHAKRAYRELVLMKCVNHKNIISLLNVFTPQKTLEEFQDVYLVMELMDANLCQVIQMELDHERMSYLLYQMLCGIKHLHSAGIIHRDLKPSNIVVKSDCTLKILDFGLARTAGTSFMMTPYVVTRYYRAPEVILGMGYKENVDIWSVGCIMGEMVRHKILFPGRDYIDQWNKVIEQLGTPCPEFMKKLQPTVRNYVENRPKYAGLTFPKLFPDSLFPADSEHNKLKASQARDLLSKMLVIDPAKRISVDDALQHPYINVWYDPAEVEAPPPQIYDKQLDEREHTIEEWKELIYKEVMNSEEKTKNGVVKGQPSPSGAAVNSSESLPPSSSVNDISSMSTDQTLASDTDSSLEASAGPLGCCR

Structure (SMILES) | IC50 [nM]
C[C@H](NC(=O)c1ccc2[nH]nc(-c3cc4ccccc4s3)c2c1F)C(N)=O [Example II-126] | 143
O=C(Cc1ccsc1)Nc1ccc2[nH]nc(-c3cn4ccccc4n3)c2c1 [Example I-163, N1-(3-Imidazo[1,2-a]pyridin-2-yl-1H-5-indazolyl)-2-(3-thienyl)acetamide] | 80
COc1c(C(=O)NCC2CC2)ccc2[nH]nc(-c3cc4ccccc4o3)c12 [Example II-93, 3-Benzo[b]furan-2-yl-4-methoxy-1H-indazole-5-carboxylic acid cyclopropylmethyl-amide] | 137
O=C(c1ccccc1)c1ccc2[nH]nc(-c3cccc(F)c3)c2c1 [Example I-26, [3-(3-Fluorophenyl)-1H-5-indazolyl](phenyl)methanone] | 113
O=C(Nc1ccc2[nH]nc(-c3cc4ccccc4s3)c2c1)C1CCOC1 (centres unmarked) [Example I-55, N3-(3-Benzo[b]thiophen-2-yl-1H-5-indazolyl)tetrahydro-3-furancarboxamide] | 52
O=C(Cc1ccsc1)Nc1cc(F)c2[nH]nc(-c3cccc(F)c3)c2c1 [Example II-288, N-[7-Fluoro-3-(3-fluorophenyl)-1H-indazol-5-yl]-2-thiophen-3-ylacetamide] | 71
O=C(Nc1ccc2[nH]nc(-c3ccc4ccccc4c3)c2c1)C1CCNCC1 [Example I-104, N4-[3-(2-Naphthyl)-1H-5-indazolyl]-4-piperidinecarboxamide] | 55
O=C(N[C@@H]1CCOC1=O)c1cc(F)c2[nH]nc(-c3ccc4ccccc4c3)c2c1 [Example II-259, 7-Fluoro-3-naphthalen-2-yl-1H-indazole-5-carboxylic acid [(3R)-2-oxo-tetrahydrofuran-3-yl]amide] | 148
CC(=O)c1cccc(-c2n[nH]c3ccc(C(=O)N[C@@H](C)C(N)=O)cc23)c1 [Example I-132, N5-[(1S)-2-Amino-1-methyl-2-oxoethyl]-3-(3-acetylphenyl)-1H-5-indazolecarboxamide] | 197
O=C(NCCCN1CCCC1=O)c1ccc2[nH]nc(-c3cc4ccccc4s3)c2c1 [Example I-137, N5-[3-(2-Oxotetrahydro-1H-1-pyrrolyl)propyl]-3-benzo[b]thiophen-2-yl-1H-5-indazolecarboxamide] | 54
O=C(Cc1cccs1)Nc1cc2c(-c3ccc4ccccc4c3)n[nH]c2cc1F [Example II-189, N-(6-Fluoro-3-naphthalen-2-yl-1H-indazol-5-yl)-2-thiophen-2-yl-acetamide] | 194
O=C(NC1CC1)c1ccc2[nH]nc(-c3cccc(F)c3)c2c1 [Example I-143, N5-Cyclopropyl-3-(3-fluorophenyl)-1H-5-indazolecarboxamide] | 221
CS(=O)(=O)Nc1ccc2[nH]nc(-c3ccc4ccccc4c3)c2c1 [Example I-94, N-[3-(2-Naphthyl)-1H-5-indazolyl]methanesulfonamide] | 163
O=C(Nc1ccc2[nH]nc(-c3cc4ccccc4o3)c2c1)c1ccco1 [Example I-48, N2-(3-Benzo[b]furan-2-yl-1H-5-indazolyl)-2-furamide] | 109
CCCOc1c(C(=O)N[C@H](CO)C(C)C)ccc2[nH]nc(-c3cc4ccccc4o3)c12 [Example II-281, 3-Benzo[b]furan-2-yl-4-propoxy-1H-indazole-5-carboxylic acid ((1S)-1-hydroxymethyl-2-methyl-propyl)-amide] | 84
O=C(Cc1cccs1)Nc1ccc2[nH]nc(-c3cccc(F)c3)c2c1 [Example I-16, N1-[3-(3-Fluorophenyl)-1H-5-indazolyl]-2-(2-thienyl)acetamide] | 51
CS(=O)(=O)Nc1cc2c(-c3cc4ccccc4s3)n[nH]c2cc1F [Example II-218, N-(3-Benzo[b]thiophen-2-yl-6-fluoro-1H-indazol-5-yl)-methanesulfonamide] | 215
COc1cccc(C(=O)NCc2cc3c(-c4ccc5ccccc5c4)n[nH]c3cc2F)c1 [Example II-208, N-{6-Fluoro-3-naphthalen-2-yl-1H-indazol-5-ylmethyl}-3-methoxy-benzamide] | 143
COc1c(C(=O)NCc2ccco2)ccc2[nH]nc(-c3cccc(F)c3)c12 [Example II-5, 3-(3-Fluoro-phenyl)-4-methoxy-1H-indazole-5-carboxylic acid (furan-2-ylmethyl)-amide] | 100
O=C(Nc1cc2c(-c3ccc4ccccc4c3)n[nH]c2cc1F)C1CC1 [Example II-184, Cyclopropanecarboxylic acid {6-fluoro-3-naphthalen-2-yl-1H-indazol-5-yl}-amide] | 86
